The source made the active and inactive calls. No rule for the calls is given here.
Experiment: mitochondrial fusion inhibitors, confirmation, cell-based, chemical genetic, wild-type and mutant (AID 1361)
Settings: Cell-based mitochondrial fusion phenotype, imaging
[1] = mutant cells, measured here: mutant cell line IC50

Row | Structure (SMILES) | IC50 (WT cells) | IC50 [1]
1 | CC1CC(C)(C)N2C(=O)C3(Nc4ccccc4S3)c3cccc1c32 (configuration not stated) | > 25 µM (inactive) | > 25 µM
2 | CCCCSc1nnc(-c2ccccc2)c2ccccc12 | 24.9 µM (inactive) | > 25 µM
3 | CSCc1nnc(NC(=O)c2ccc(S(=O)(=O)N(CC(C)C)CC(C)C)cc2)o1 | > 25 µM (inactive) | > 25 µM
4 | N#CC1=C(N)C2=CCCC[C@H]2[C@H](c2ccc(Br)cc2)C1(C#N)C#N | 4.48 µM | 7.07 µM
5 | CCC(C)(C)c1ccc2c(c1)C(=O)c1ccccc1C2=O | 18.6 µM | > 25 µM
6 | Cc1ccc(OCCSc2nc(NC(C)C)nc(NC(C)C)n2)cc1 | 12.3 µM | > 25 µM
7 | Clc1ccc(C2=NNC(=NCc3ccc4c(c3)OCO4)SC2)cc1 | > 25 µM (inactive) | > 25 µM
8 | Cc1cc(NC(=S)N(Cc2ccc(Br)cc2)Cc2ccc(C(=O)O)cc2)ccc1Cl | 16.3 µM | > 25 µM
9 | O=C(OC(c1ccc(NS(=O)(=O)c2ccccc2)cc1)(C(F)(F)F)C(F)(F)F)c1ccccc1 | 18.2 µM | > 25 µM
10 | COCCCNC(=O)c1cccc(C(=O)NCCCOC)c1 | > 25 µM (inactive) | > 25 µM
11 | COc1ccc(-c2nnc(SCC(=O)c3cccs3)o2)c(OC)c1 | > 25 µM (inactive) | > 25 µM
12 | O=C1CC(SCc2nc3ccccc3[nH]2)C(=O)N1c1cccc(F)c1 (configuration not stated) | > 25 µM (inactive) | > 25 µM
13 | COc1ccc(CCn2nnnc2C(C(C)C)N2CCN(c3ncccn3)CC2)cc1OC (configuration not stated) | > 25 µM (inactive) | > 25 µM
14 | CC(=O)Nc1cccc(Oc2ncnc3scc(-c4ccc(C(C)C)cc4)c23)c1 | 14.5 µM | > 25 µM
15 | CC1CC(C)CN(C2CCN(Cc3cccnc3)CC2)C1 (configuration not stated) | > 25 µM (inactive) | > 25 µM
16 | Cc1ccc(-c2cc(-c3ccccc3)c(C#N)c(N)n2)o1 | > 25 µM (inactive) | > 25 µM
17 | O=C(/C(=N\O)n1cncn1)c1ccc(Br)cc1Br | > 25 µM (inactive) | > 25 µM
18 | Cc1ccc(NNC(=S)Nc2ccc(C(C)C)cc2)c(C)c1 | 15.3 µM | > 25 µM
19 | CNC(=S)N/N=C/c1cccc(OCc2ccccc2F)c1 | > 25 µM (inactive) | > 25 µM
20 | CN1CCC2(CC1)Nc1nc(SCc3ccc(Cl)cc3)nn1C1=C2CN(C)CC1 | > 25 µM (inactive) | > 25 µM
21 | COC(=O)[C@@H]1CC[C@H](C)[C@@H](c2ccc(C)cc2)N1C(=O)c1ccc(/C=N/O[C@@H](C)CN2CCCCc3nc(C)c(C)cc32)cc1 | 6.19 µM | > 25 µM
22 | CN(C)c1ccc(C(CNS(=O)(=O)c2ccc(F)c(F)c2)c2c[nH]c3ccccc23)cc1 (configuration not stated) | 13.4 µM | > 25 µM
23 | CCOC(=O)c1sc(NC(=O)/C=C/c2cnn(C)c2C)c(C(=O)OC(C)C)c1C | > 25 µM (inactive) | > 25 µM
24 | Cc1cc(NC(=S)N(Cc2cccc(Br)c2)CC2CCC(C(=O)O)CC2)ccc1Cl (configuration not stated) | 21.9 µM | > 25 µM

More lines, now with the values ahead:

Row | IC50 (WT cells) | IC50 [1] | Structure (SMILES)
25 | 21.9 µM | > 25 µM | Cc1nc2cc(C(=O)OCC(=O)NC34CC5CC(CC(C5)C3)C4)ccc2n1-c1ccccc1
26 | > 25 µM (inactive) | > 12.5 µM | CCN1CCc2nc(NC(=O)c3ccccc3)sc2C1
27 | > 25 µM (inactive) | > 25 µM | CC1Cc2ccccc2N1C(=O)Cn1c(=O)cc(O)c2ccccc21 (configuration not stated)
28 | 12.5 µM | 23.1 µM | S=c1[nH]nc(-c2cc3ccccc3o2)n1Cc1ccccc1
29 | > 25 µM (inactive) | > 25 µM | CC12CCC(c3c(C(=O)O)nn(-c4ccc(F)cc4)c31)C2(C)C (configuration not stated)
30 | 13.8 µM | 24.9 µM | COc1ccc(C2=NN(C(=O)c3cccs3)C(c3ccccc3O)C2)cc1 (configuration not stated)
31 | 20.9 µM | > 25 µM | COc1ccccc1/C=C/C=N\N1CCN(Cc2ccccc2Cl)CC1
32 | 19.4 µM | 23.8 µM | Cc1cc(NC(=O)C2CCCCC2)nc2c1c(=O)oc1ccccc12
33 | > 25 µM (inactive) | > 25 µM | O=C(Nc1ccc2c(c1)nc1n2CCN(Cc2ccccc2)C1)c1cccs1
34 | > 25 µM (inactive) | > 25 µM | CCOc1ccccc1NC(=O)NC(=O)N(C)S(=O)(=O)c1ccc(C)cc1
35 | 15 µM | > 25 µM | O=C(COc1ccccc1-c1ccccc1)NCc1cccc(Cl)c1
36 | > 25 µM (inactive) | > 25 µM | O=C(CN1CCN(S(=O)(=O)c2ccc(Cl)s2)CC1)NCc1ccc(Cl)cc1
37 | 14.8 µM | > 25 µM | O=C(Nn1c(C2CCCCC2)nc2ccccc2c1=O)c1ccc(Cl)c([N+](=O)[O-])c1
38 | > 25 µM (inactive) | > 25 µM | CS(=O)(=O)c1nc2ccccc2n1Cc1ccccc1
39 | > 25 µM (inactive) | > 25 µM | O=C(Nc1ccccc1Sc1ccccc1)c1ccc(F)cc1
40 | > 25 µM (inactive) | > 25 µM | CCCn1nnc(NC(=O)c2ccc(-c3cccc(Cl)c3)o2)n1
41 | > 25 µM (inactive) | > 25 µM | Cc1ccc(/C=N/n2cnc3sc(-c4ccccc4)cc3c2=O)o1

Source: PubChem BioAssay AID1361 (SRMLSC, 2008)
